For 28 compounds, IC50 results are on record in patent US10538521B2, “Pyrimidine derivative having antimalarial activity” (CARNA BIOSCIENCES, INC., priority 2016, dated 2020).

Counter-ions that a name gives are not always drawn. Like-named read-outs stand apart in the source and are kept apart here. Bounds are passed on as bounds.

Test [1] has as its system K1 strain, a drug resistant strain of Plasmodium falciparum. The test can be described thus: In vitro antimalarial assay (p-LDH, Malstat), K1 strain. The settings on record: read-out: Antimalarial activity (IC50 value), Strain K1. In kind it is cell-based. The procedure, abridged:
(§1)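 IC50 derived from concentration-response of parasite lactate dehydrogenase signal (Malstat reagent, NBT/PES formazan at 655 nm) after freeze-thaw lysis. Infected erythrocytes (hematocrit 2%, parasitaemia 0.5 or 1%) exposed 72 h to 12.5–0.0001 μM final compound under 3% O2-4% CO2-93% N2, FCR3 and K1 alike.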

Test [2] has as its system FCR3 strain, a drug sensitive strain of Plasmodium falciparum. The test can be described thus: In vitro antimalarial assay (p-LDH, Malstat), FCR3 strain. The settings on record: read-out: Antimalarial activity (IC50 value), Strain FCR3. The test is classed as cell-based. The procedure, abridged:
as §1

Where [3] appears, read: P. falciparum K1 (drug resistant), 72 h culture, p-LDH readout.
Setting [4] is: P. falciparum FCR3 (drug sensitive), 72 h culture, p-LDH readout.

For orientation: IC50 means the point on the concentration scale where inhibition reaches its midpoint.

As to `Cc1cc(C)nc(Nc2nc(Nc3ccn4ccnc4c3)cc(N3CC4(COC4)C3)n2)c1` [Example 178, N2-(4,6-dimethylpyridin-2-yl)-N4-(imidazo[1,2-a]pyridin-7-yl)-6-(2-oxa-6-azaspiro[3.3]heptan-6-yl)pyrimidine-2,4-diamine], the IC50 in test [1] (setting [3]) and in test [2] (setting [4]) was less than 100 nM each time.

Regarding `Cc1ccnc(Nc2nc(N)cc(Nc3ccn4ccnc4c3)n2)c1` [Example 50, N4-(imidazo[1,2-a]pyridin-7-yl)-N2-(4-methylpyridin-2-yl) pyrimidine-2,4,6-triamine], the IC50 in test [1] (setting [3]) and in test [2] (setting [4]) was less than 100 nM each time.

For `CC(C)c1cccc(Nc2nc(Nc3ccn4ccnc4c3)cc(N3CCOCC3)n2)n1` [Example 123, N4-(imidazo[1,2-a]pyridin-7-yl)-N2-(6-isopropylpyridin-2-yl)-6-morpholinopyrimidine-2,4-diamine formate], the IC50 in test [1] (K1, 72 h) is 100 to 1000 nM; in test [2] (FCR3, 72 h), less than 100 nM.

For `CCc1ccnc(Nc2nc(Nc3ccn4ccnc4c3)cc(N3CC[C@H](N(C)C)C3)n2)c1` [Example 126, (S)-6-(3-(dimethylamino)pyrrolidin-1-yl)-N2-(4-ethylpyridin-2-yl)-N4-(imidazo[1,2-a]pyridin-7-yl)pyrimidine-2,4-diamine], the IC50 in test [1] (setting [3]) and in test [2] (setting [4]) was less than 100 nM each time.

For the compound `Cc1ccc(Nc2nc(N)cc(Nc3ccn4ccnc4c3)n2)nc1` [Example 44], the half-inhibitory concentration (IC50) in test [1] (setting [3]) and in test [2] (setting [4]) was less than 100 nM each time.

As for `CC(C)c1cccc(Nc2nc(Nc3ccn4ccnc4c3)cc(N3CCCCC3)n2)n1` [Example 121, N4-(imidazo[1,2-a]pyridin-7-yl)-N2-(6-isopropylpyridin-2-yl)-6-(piperidin-1-yl)pyrimidine-2,4-diamine], the results for the half-maximal inhibitory concentration (IC50) in test [1] (setting [3]) and in test [2] (setting [4]) were 100 to 1000 nM and less than 100 nM, respectively.

`CCCCc1cccc(Nc2nc(Nc3ccn4ccnc4c3)cc(N3CCC(C)(C)C3)n2)n1` [Example 168, N2-(6-butylpyridin-2-yl)-6-(3,3-dimethylpyrrolidin-1-yl)-N4-(imidazo[l,2-a]pyridin-7-yl) pyrimidine-2,4-diamine]: the values for the IC50 in test [1] (setting [3]) and in test [2] (setting [4]) were 100 to 1000 nM and less than 100 nM, respectively.

As for `Cc1cc(C)nc(Nc2nc(Nc3ccn4ccnc4c3)cc(NN3CCCC3)n2)c1` [Example 206, N2-(4,6-dimethylpyridin-2-yl)-N4-(imidazo[1,2-a]pyridin-7-yl)-N6-(pyrrolidin-1-yl)pyrimidine-2,4,6-triamine], the 50% inhibitory concentration (IC50) in test [1] (setting [3]) and in test [2] (setting [4]) was less than 100 nM throughout.

With `c1cc(Nc2nc(Nc3ccn4ccnc4c3)cc(N3CCOCC3)n2)ncn1` [Example 22, N4-(Imidazo[1,2-a]pyridin-7-yl)-6-morpholino-N2-(pyrimidin-4-yl)pyrimidine-2,4-diamine], the IC50 in test [1] (setting [3]) and in test [2] (setting [4]) was 100 to 1000 nM each time.

Regarding `Cc1cc(C)nc(Nc2nc(Nc3ccn4ccnc4c3)cc(N3CCC(C)CC3)n2)c1` [Example 183, N2-(4,6-dimethylpyridin-2-yl)-N4-(imidazo[1,2-a]pyridin-7-yl)-6-(4-methylpiperidin-1-yl) pyrimidine-2,4-diamine], the IC50 in test [1] (setting [3]) and in test [2] (setting [4]) was 100 to 1000 nM each time.

Consider `CCCCOc1ccc(Nc2nc(Nc3ccn4ccnc4c3)cc(N3CCOCC3)n2)cn1` [Example 62, N2-(6-butoxypyridin-3-yl)-N4-(imidazo[1,2-a]pyridin-7-yl)-6-morpholinopyrimidine-2,4-diamine], for which the 50% inhibitory concentration (IC50) in test [1] (setting [3]) and in test [2] (setting [4]) was 100 to 1000 nM throughout.

As for `Cc1cc(C)nc(Nc2nc(Nc3ccn4ccnc4c3)cc(N3CCC(C)(C)CC3)n2)c1` [Example 182, 6-(4,4-dimethylpiperidin-1-yl)-N2-(4,6-dimethylpyridin-2-yl)-N4-(imidazo[1,2-a]pyridine-7-yl)pyrimidine-2,4-diamine], the IC50 in test [1] (setting [3]) and in test [2] (setting [4]) was 100 to 1000 nM each time.

Consider `CCOCc1cccc(Nc2nc(Nc3ccn4ccnc4c3)cc(N3CCCC3)n2)n1` [Example 171, N2-[6-(ethoxymethyl)pyridin-2-yl]-N4-(imidazo[1,2-a]pyridin-7-yl)-6-(pyrrolidin-1-yl) pyrimidine-2,4-diamine], for which the half-maximal inhibitory concentration (IC50) in test [1] (setting [3]) and in test [2] (setting [4]) was 100 to 1000 nM throughout.

Take `Cc1ccc(Nc2nc(Nc3ccn4ccnc4c3)cc(N3CCOCC3)n2)nc1` [Example 18, N4-(Imidazo[1,2-a]pyridin-7-yl)-N2-(5-methylpyridin-2-yl)-6-morpholinopyrimidine-2,4-diamine]: the half-maximal inhibitory concentration (IC50) in test [1] (setting [3]) and in test [2] (setting [4]) was less than 100 nM throughout.

For the compound `Cc1cc(C)nc(Nc2nc(Nc3ccn4ccnc4c3)cc(N3CC(C)(C)C3)n2)c1` [Example 177, 6-(3,3-dimethylazetidin-1-yl)-N2-(4,6-dimethylpyridin-2-yl)-N4-(imidazo[1,2-a]pyridin-7-yl)pyrimidine-2,4-diamine], the half-inhibitory concentration (IC50) in test [1] (setting [3]) and in test [2] (setting [4]) was less than 100 nM each time.

As for `Cc1cc(C)nc(Nc2nc(Nc3ccn4ccnc4c3)cc(N3CCC(O)CC3)n2)c1` [Example 130, 1-(2-((4,6-dimethylpyridin-2-yl)amino)-6-(imidazo[1,2-a]pyridin-7-ylamino)pyrimidin-4-yl)piperidin-4-ol], the concentration for half-maximal inhibition (IC50) in test [1] (setting [3]) and in test [2] (setting [4]) was less than 100 nM each time.

Consider `CCc1ccnc(Nc2nc(Nc3ccn4ccnc4c3)cc(N3CCC(C)(C)CC3)n2)c1` [Example 99, 6-(4,4-dimethylpiperidin-1-yl)-N2-(4-ethylpyridin-2-yl)-N4-(imidazo[1,2-a]pyridin-7-yl)pyrimidine-2,4-diamine], for which the IC50 in test [1] (setting [3]) and in test [2] (setting [4]) was 100 to 1000 nM throughout.

On to `c1ccc(Oc2ccc(Nc3nc(Nc4ccn5ccnc5c4)cc(N4CCOCC4)n3)cn2)cc1` [Example 90, N4-(imidazo[1,2-a]pyridin-7-yl)-6-morpholino-N2-(6-phenoxypyridin-3-yl)pyrimidine-2,4-diamine], for which the concentration for half-maximal inhibition (IC50) in test [1] (setting [3]) is 100 to 1000 nM; in test [2] (setting [4]), less than 100 nM.

For the compound `Cc1cc(C)nc(Nc2nc(Nc3ccn4ccnc4c3)cc(-n3ccnc3)n2)c1` [Example 46], the 50% inhibitory concentration (IC50) is 100 to 1000 nM in test [1] (setting [3]) and less than 100 nM in test [2] (setting [4]).

Turning to `Cc1ccc(Nc2nc(Nc3ccn4ccnc4c3)cc(N3CCN(C)CC3)n2)nc1` [Example 27, N4-(imidazo[1,2-a]pyridin-7-yl)-6-(4-methylpiperazin-1-yl)-N 2-(5-methylpyridin-2-yl) pyrimidine-2,4-diamine], the IC50 fell in the range of 100 to 1000 nM in test [1] (setting [3]) and 1000 to 10000 nM in test [2] (setting [4]).

As for `Cc1cccc(Nc2nc(N)cc(Nc3ccn4ccnc4c3)n2)n1` [Example 54, N4-(Imidazo[1,2-a]pyridin-7-yl)-N2-(6-methylpyridin-2-yl) pyrimidine-2,4,6-triamine], the 50% inhibitory concentration (IC50) in test [1] (setting [3]) and in test [2] (setting [4]) was less than 100 nM in each case.

Consider `CCOc1cc(Nc2ccn3ccnc3c2)nc(Nc2cc(C)ccn2)n1` [Example 36, 6-ethoxy-N4-(imidazo[1,2-a]pyridin-7-yl)-N2-(4-methylpyridin-2-yl) pyrimidine-2,4-diamine], for which the half-inhibitory concentration (IC50) in test [1] (setting [3]) and in test [2] (setting [4]) was 1000 to 10000 nM in each case.

For the compound `CC(C)(C)OCCOc1cccc(Nc2nc(Nc3ccn4ccnc4c3)cc(N3CCCC3)n2)n1` [Example 156, N2-{6-[2-(tert-butoxy)ethoxy]pyridin-2-yl}-N4-(imidazo[1,2-a]pyridin-7-yl)-6-(pyrrolidin-1-yl)pyrimidine-2,4-diamine], the IC50 in test [1] (setting [3]) is 100 to 1000 nM; in test [2] (setting [4]), less than 100 nM.

On to `CCc1ccnc(Nc2nc(Nc3ccn4ccnc4c3)cc(N3CCCCCC3)n2)c1` [Example 92, 6-(azepan-1-yl)-N2-(4-ethylpyridin-2-yl)-N4-(imidazo[1,2-a]pyridin-7-yl)pyrimidine-2,4-diamine], for which the IC50 in test [1] (setting [3]) and in test [2] (setting [4]) was less than 100 nM throughout.

`CC(C)(C)COc1ccc(Nc2nc(Nc3ccn4ccnc4c3)cc(N3CCOCC3)n2)cn1` [Example 65, N4-(imidazo[1,2-a]pyridin-7-yl)-6-morpholino-N2-(6-(neopentyloxy)pyridin-3-yl)pyrimidine-2,4-diamine]: the IC50 in test [1] (setting [3]) and in test [2] (setting [4]) was 100 to 1000 nM each time.

Take `CC(C)c1ccnc(Nc2nc(Nc3ccn4ccnc4c3)cc(N3CCCCC3)n2)c1` [Example 73, N4-(imidazo[1,2-a]pyridin-7-yl)-N2-(4-isopropylpyridin-2-yl)-6-(piperidin-1-yl)pyrimidine-2,4-diamine]: the 50% inhibitory concentration (IC50) in test [1] (setting [3]) and in test [2] (setting [4]) was 100 to 1000 nM throughout.

Consider `COc1ccnc(Nc2nc(Nc3ccn4ccnc4c3)cc(N3CCC4(CCCC4)C3)n2)c1` [Example 207, N4-(imidazo[1,2-a]pyridin-7-yl)-N2-(4-methoxypyridin-2-yl)-6-(2-azaspiro[4.4]nonan-2-yl) pyrimidine-2,4-diamine], for which the half-inhibitory concentration (IC50) in test [1] (setting [3]) and in test [2] (setting [4]) was 100 to 1000 nM each time.

`CCCCc1cccc(Nc2nc(Nc3ccn4ccnc4c3)cc(N3CCOCC3)n2)n1` [Example 109, N2-(6-butylpyridin-2-yl)-N4-(imidazo[1,2-a]pyridin-7-yl)-6-morpholinopyrimidine-2,4-diamine]: the 50% inhibitory concentration (IC50) in test [1] (setting [3]) and in test [2] (setting [4]) was less than 100 nM in each case.
